Measured values reported in ChEMBL document CHEMBL1138246, “Ester prodrugs of cyclic 1-(S)-[3-hydroxy-2-(phosphonomethoxy)propyl]-5-azacytosine: synthesis and antiviral activity” (J Med Chem, 2007).
Converted amounts (≈) assume the structure as drawn.

How the values were obtained:
Human alphaherpesvirus 3 [1] = format: functional, organism-based; conditions: Human alphaherpesvirus 3, OKA, HEL
Human respirovirus 3 = experiment: Antiviral activity against Parainfluenza 3 in Vero cells reduction of virus-induced cytopathogenicity after 4 days; format: functional, organism-based; conditions: Human respirovirus 3, Vero, 96 h
[2] = tested on: Vesicular stomatitis virus; experiment: microbe, parasite or virus in culture; conditions: HEL
Coxsackievirus B4 [3] = format: functional, organism-based; conditions: Enterovirus B, Vero
[4] = tested on: Mammalian orthoreovirus 1; experiment: Antiviral activity against Reovirus 1 in Vero cells reduction of virus-induced cytopathogenicity after 4 days; format: functional, organism-based; conditions: Mammalian orthoreovirus 1, Vero, 96 h
Sindbis virus = experiment: Antiviral activity against Sindbis virus in Vero cells reduction of virus-induced cytopathogenicity after 4 days; format: functional, organism-based; conditions: 96 h
Human betaherpesvirus 5 [5] = format: functional, organism-based; conditions: Human betaherpesvirus 5, AD169, HEL
Human alphaherpesvirus 2 [6] = format: functional, organism-based; conditions: Human alphaherpesvirus 2, G, HEL
[7] = tested on: Respiratory syncytial virus; format: functional, organism-based; conditions: human respiratory syncytial virus, HeLa
Human adenovirus 2 = format: functional, organism-based; conditions: Human mastadenovirus C, HEL
HEL [8] = experiment: Cytotoxicity against HEL cells assessed as cell growth after 3 days; format: functional, Homo sapiens
Coxsackievirus B4 [9] = format: functional, organism-based; conditions: Enterovirus B, HeLa
Human alphaherpesvirus 2 [10] = format: functional, organism-based; conditions: Human alphaherpesvirus 2, Lyons, HEL
Human alphaherpesvirus 3 [11] = format: functional, organism-based; conditions: Human alphaherpesvirus 3, 07-1, HEL
[12] = tested on: Human immunodeficiency virus 2; format: functional, organism-based; conditions: Human immunodeficiency virus 2, ROD, CCRF-CEM, 96 h
[13] = Cytotoxicity against C3H cells assessed as alteration in morphology after 3 days; format: cell-based, Mus musculus; conditions: for EC50: Mus musculus, C3H, 72 h; for MCC at 72 h: mouse, C3H cells
CCRF-CEM = experiment: Cytotoxicity against CEM cells assessed as cell growth after 3 days; format: functional; conditions: Homo sapiens, 72 h
Vero = experiment: (§1) Cytotoxicity against Vero cells assessed as alteration in morphology after 3 days; format: cell-based, Chlorocebus sabaeus; conditions: Chlorocebus sabaeus, Vero, 72 h
MOLT-3 = experiment: Cytotoxicity against MOLT3 cells assessed as alteration in morphology after 3 days; format: functional, Homo sapiens
[14] = tested on: Vesicular stomatitis virus; experiment: microbe, parasite or virus in culture; conditions: HeLa
[15] = tested on: Human immunodeficiency virus 1; format: functional, organism-based; conditions: Human immunodeficiency virus 1, 3B, CCRF-CEM, 96 h
[16] = Cytotoxicity against HSB2 cells assessed as alteration in morphology after 3 days; format: functional, Homo sapiens, CCRF-HSB-2
HeLa = experiment: Cytotoxicity against HeLa cells assessed as alteration in morphology after 3 days; format: functional, cell-based; conditions: Homo sapiens, 72 h
[17] = tested on: Moloney murine sarcoma virus; conditions: C3H
Human betaherpesvirus 5 [18] = format: functional, organism-based; conditions: Human betaherpesvirus 5, Davis, HEL
Punta Toro virus = experiment: Antiviral activity against Punta Toro virus in Vero cells reduction of virus-induced cytopathogenicity after 4 days; format: functional, organism-based; conditions: 96 h
HEL [19] = experiment: Cytotoxicity against HEL cells assessed as alteration in morphology after 3 days; format: functional; conditions: Homo sapiens, 72 h
[20] = as §1; format: cell-based, Chlorocebus sabaeus; conditions: chlorocebus sabaeus, Vero cells
[21] = Homo sapiens, HEL, 72 h, read-out: CC50
[22] = Homo sapiens, MOLT-3, 72 h, read-out: MCC
[23] = Homo sapiens, CCRF-HSB-2, 72 h, read-out: MCC

SMILES	EC50 (Human alphaherpesvirus 3 [1]) [µg/mL]	EC50 (Human respirovirus 3) [µg/mL]	EC50 [2] [µg/mL]	EC50 (Coxsackievirus B4 [3]) [µg/mL]	EC50 [4] [µg/mL]	EC50 (Sindbis virus) [µg/mL]	EC50 (Human betaherpesvirus 5 [5]) [µg/mL]	EC50 (Human alphaherpesvirus 2 [6]) [µg/mL]	EC50 [7] [µg/mL]	CC50 (HEL [8]; [21]) [µg/mL]	EC50 (Coxsackievirus B4 [9]) [µg/mL]	EC50 (Human alphaherpesvirus 2 [10]) [µg/mL]	EC50 (Human alphaherpesvirus 3 [11]) [µg/mL]	EC50 [14] [µg/mL]	EC50 [17] [µg/mL]	EC50 (Human betaherpesvirus 5 [18]) [µg/mL]	EC50 (Punta Toro virus) [µg/mL]	MCC (HEL [19]) [µg/mL]	MCC at 72 h [20] [µg/mL]	MCC (HeLa) [µg/mL]	other results
Nc1ncn(C[C@@H](CO)OCP(=O)(O)O)c(=O)n1	0.06 (≈ 0.214 µM)	> 100	> 100	> 100	> 100	> 100	0.23 (≈ 0.821 µM)	0.45 (≈ 1.61 µM)	> 100	225 (≈ 803 µM)	> 100	0.24 (≈ 0.857 µM)	0.039 (≈ 0.139 µM)	> 100	≥ 4	0.082 (≈ 0.293 µM)	> 100	> 100			EC50 (Human adenovirus 2): 0.71 µg/mL (≈ 2.53 µM); EC50 [12]: 20 µg/mL (≈ 71.4 µM); EC50 [13]: > 20 µg/mL; CC50 (CCRF-CEM): 30 µg/mL (≈ 107 µM); EC50 (Vero): > 100 µg/mL; MCC (MOLT-3; [22]): 16 µg/mL; EC50 [15]: 20 µg/mL (≈ 71.4 µM); MCC [16, 23]: 16 µg/mL; EC50 (HeLa): > 100 µg/mL
Nc1ncn(C[C@H]2COP(=O)(O)CO2)c(=O)n1	0.12 (≈ 0.458 µM)	> 200	> 200	> 200	> 200	> 200	0.07 (≈ 0.267 µM)	0.61 (≈ 2.33 µM)	> 200	> 100	> 200	0.48 (≈ 1.83 µM)	0.04 (≈ 0.153 µM)	> 200	> 20	0.06 (≈ 0.229 µM)	> 200	> 100	> 200	> 200	MCC at 72 h [13]: 100 µg/mL; MCC (MOLT-3; [22]): 33 µg/mL; MCC [16, 23]: 200 µg/mL
CCCCCCCCCCCCCCCCOCCOP1(=O)CO[C@@H](Cn2cnc(N)nc2=O)CO1 (some centres not stated)	0.0014 (≈ 0.00264 µM)	16 (≈ 30.2 µM)	> 3.2	16 (≈ 30.2 µM)	16 (≈ 30.2 µM)	16 (≈ 30.2 µM)	0.00038 (≈ 0.000716 µM)	0.082 (≈ 0.155 µM)	> 3.2		> 3.2	0.004 (≈ 0.00754 µM)	0.0008 (≈ 0.00151 µM)	> 3.2	> 4	0.00014 (≈ 0.000264 µM)	16 (≈ 30.2 µM)	16	80	16	EC50 (Human adenovirus 2): < 0.512 µg/mL; CC50 (HEL [8]): 6.4 µg/mL (≈ 12.1 µM); EC50 [12]: > 0.8 µg/mL; MCC at 72 h [13]: 20 µg/mL; CC50 (CCRF-CEM): 2 µg/mL (≈ 3.77 µM); MCC (MOLT-3): 0.56 µg/mL; EC50 [15]: > 0.8 µg/mL; MCC [16]: 1.6 µg/mL
CCCCCCCCCCCCCCCCCCOP1(=O)CO[C@@H](Cn2cnc(N)nc2=O)CO1 (some centres not stated)	0.04 (≈ 0.0777 µM)	> 8	> 1.6	> 8	> 8	> 8	0.0037 (≈ 0.00719 µM)	1.66 (≈ 3.23 µM)	> 40	> 100	> 40	1.31 (≈ 2.55 µM)	0.009 (≈ 0.0175 µM)	> 40	> 4	0.0014 (≈ 0.00272 µM)	> 8	8			EC50 (Human adenovirus 2): 0.051 µg/mL (≈ 0.0991 µM); EC50 [12]: > 20 µg/mL; EC50 [13]: 20 µg/mL (≈ 38.9 µM); CC50 (CCRF-CEM): 12 µg/mL (≈ 23.3 µM); EC50 (Vero): 40 µg/mL (≈ 77.7 µM); MCC (MOLT-3; [22]): 0.8 µg/mL; EC50 [15]: > 20 µg/mL; MCC [16, 23]: ≥ 5 µg/mL; EC50 (HeLa): 200 µg/mL (≈ 389 µM)
CC(C)(C)C(=O)OCOP1(=O)CO[C@@H](Cn2cnc(N)nc2=O)CO1 (some centres not stated)	0.11 (≈ 0.292 µM)	> 100	> 20	> 100	> 100	> 100	0.061 (≈ 0.162 µM)	0.32 (≈ 0.85 µM)	> 20	14 (≈ 37.2 µM)	> 20	0.24 (≈ 0.638 µM)	0.02 (≈ 0.0531 µM)	> 20	> 20	0.067 (≈ 0.178 µM)	> 100	> 40	> 100	100	EC50 (Human adenovirus 2): 0.069 µg/mL (≈ 0.183 µM); EC50 [12]: > 20 µg/mL; MCC at 72 h [13]: 100 µg/mL; CC50 (CCRF-CEM): 18 µg/mL (≈ 47.8 µM); MCC (MOLT-3; [22]): ≥ 4 µg/mL; EC50 [15]: > 20 µg/mL; MCC [16, 23]: 4 µg/mL
Nc1ncnc2c1ncn2C[C@H](O)CO [(S)-DHPA]		> 200		> 200	200 (≈ 956 µM)	> 200			> 200		> 200			120 (≈ 574 µM)			> 200		> 200	> 200	
Nc1nc2c(ncn2COCCO)c(=O)[nH]1 [ACYCLOVIR]								0.05 (≈ 0.222 µM)		212 (≈ 941 µM)								> 100			
O=c1[nH]c(=O)n([C@H]2C[C@H](O)[C@@H](CO)O2)cc1/C=C/Br [BRIVUDINE]	0.0022 (≈ 0.0066 µM)	> 200	200 (≈ 600 µM)	> 200	> 200	> 200		9 (≈ 27 µM)	> 200	212 (≈ 636 µM)	> 200	8.8 (≈ 26.4 µM)	≥ 44.4	200 (≈ 600 µM)			> 200	> 100	> 200	> 200	
Nc1ccn(C[C@@H](CO)OCP(=O)(O)O)c(=O)n1.O.O [CIDOFOVIR]	0.09	> 31.5	> 31.5	> 31.5	> 31.5	> 31.5	0.15	0.65	> 31.5	76	> 31.5	0.42	0.03	> 31.5	> 4	0.18	> 31.5	> 31.5	> 31.5	> 31.5	EC50 (Human adenovirus 2): 2 µg/mL; EC50 [12]: > 20 µg/mL; MCC at 72 h [13]: 20 µg/mL; EC50 [15]: > 20 µg/mL; MCC [16, 23]: 60 µg/mL
Nc1ccn(C[C@H]2COP(=O)(O)CO2)c(=O)n1 [CYCLIC CIDOFOVIR]	0.12 (≈ 0.459 µM)	> 200	> 200	> 200	> 200	> 200	0.21 (≈ 0.804 µM)	0.76 (≈ 2.91 µM)	> 200	≥ 76	> 200	0.45 (≈ 1.72 µM)	0.04 (≈ 0.153 µM)	> 200	> 20	0.22 (≈ 0.842 µM)	> 200	> 100	> 200	> 200	EC50 [12]: > 20 µg/mL; MCC at 72 h [13]: 100 µg/mL; EC50 [15]: > 20 µg/mL
Nc1nc2c(ncn2COC(CO)CO)c(=O)[nH]1 [GANCICLOVIR]							1.68 (≈ 6.58 µM)	0.0036 (≈ 0.0141 µM)		122 (≈ 478 µM)		0.0014 (≈ 0.00549 µM)				1.29 (≈ 5.05 µM)		> 100			
NC(=O)c1ncn([C@@H]2O[C@H](CO)[C@@H](O)[C@H]2O)n1 [RIBAVIRIN]		120 (≈ 491 µM)	120 (≈ 491 µM)	> 200	200 (≈ 819 µM)	120 (≈ 491 µM)			24 (≈ 98.3 µM)		90 (≈ 369 µM)			24 (≈ 98.3 µM)			40 (≈ 164 µM)	> 200	> 200	> 200	
